The test concerns the target T1, BT0984^GH139 (Bacteroides thetaiotaomicron, UniProt Q8A933).
T1 construct: gene BT_0984; full-length gene in pET28a (NheI/XhoI), N-terminal His6 tag, expressed in E. coli BL21(DE3) or TUNER; cobalt IMAC purified
T1 sequence (Q8A933 1-803): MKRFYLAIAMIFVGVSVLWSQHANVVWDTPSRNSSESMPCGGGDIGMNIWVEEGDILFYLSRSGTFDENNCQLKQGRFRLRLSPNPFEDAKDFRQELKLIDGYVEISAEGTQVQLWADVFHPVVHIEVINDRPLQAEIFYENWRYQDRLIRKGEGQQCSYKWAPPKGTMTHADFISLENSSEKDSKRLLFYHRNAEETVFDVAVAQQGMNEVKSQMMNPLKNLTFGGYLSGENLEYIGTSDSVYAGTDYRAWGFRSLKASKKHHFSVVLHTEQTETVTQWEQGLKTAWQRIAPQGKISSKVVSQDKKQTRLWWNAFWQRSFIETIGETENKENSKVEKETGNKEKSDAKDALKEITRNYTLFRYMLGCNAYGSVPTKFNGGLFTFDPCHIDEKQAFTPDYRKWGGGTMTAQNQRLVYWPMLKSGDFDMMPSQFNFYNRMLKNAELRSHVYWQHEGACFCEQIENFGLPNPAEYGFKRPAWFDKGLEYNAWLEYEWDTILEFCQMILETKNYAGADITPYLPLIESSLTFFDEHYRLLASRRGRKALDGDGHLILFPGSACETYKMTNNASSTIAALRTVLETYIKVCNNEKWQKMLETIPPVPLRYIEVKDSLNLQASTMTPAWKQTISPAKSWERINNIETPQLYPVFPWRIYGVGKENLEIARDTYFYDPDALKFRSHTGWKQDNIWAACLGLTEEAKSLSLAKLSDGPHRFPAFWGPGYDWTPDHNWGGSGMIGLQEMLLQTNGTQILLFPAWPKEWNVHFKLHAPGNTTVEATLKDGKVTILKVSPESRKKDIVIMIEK
Nature of the test: thin layer chromatography. In kind it is biochemical. The note with it: 1 μM enzyme, 10 mM MOPS pH 7.0, 150 mM NaCl, 37 °C; slow.

Each structure is given as a SMILES string.

Turning to `CO[C@@H]1[C@H](Oc2ccc([N+](=O)[O-])cc2)O[C@@H](C)[C@@H](O)[C@H]1O` [4NP-MeFuc, 4-nitrophenyl-2-O-methyl-α-L-fucopyranoside], the thin layer chromatography entry is given as “displayed activity on 4-nitrophenyl 2-O-methyl-α-L-fucoside (4NP-MeFuc)”.

The values are drawn from PMC12282258, “Understanding the substrate recognition and catalytic mechanism of 2-O-methyl fucosidases from glycoside hydrolase family 139” (The Journal of Biological Chemistry, 2025).
